Reference: patent publication US20050214759A1, “Enzymatic redox labelling of nucleic acids” (priority 2001, published 2005)

Key:
T7 RNA polymerase = biological target: T1, T7 RNA polymerase (Escherichia phage T7, UniProt P00573); experiment: Incorporation of Fc-UTP into RNA in the course of transcription; assay type: biochemical
T1 construct: purchased USB
Method: Circular plasmid pT7Mta which contains the promoter for T7 RNA polymerase followed by the gene for aptamer C40 and a T7 terminator sequence was used for transcription. T7 RNA polymerase tends to produce short abortive RNA transcripts when modified nucleotides are incorporated into the first 12 nucleotides of RNA.
A typical transcription mixture (10 μL) contained 40 mM tris-HCl (pH 8.0), 15 mM MgCl2, 5 mM DTT, 0.05 mg/mL BSA, 1 UOL Rnasin, 0.4 mM NTPs, 10 ug/mL pT7Mta template, and 10U/uL T7 RNA polymerase. In some reaction mixtures, UTP was partially or fully substituted with […] in such a way that the total concentration of UTP and Fc-UTP was still 0.4 mM. Reaction mixtures were incubated at 37° C. for 2 h. Reactions were stopped by addition of 10 μL of gel loading buffer (98% formamide, 10 mM EDTA (pH 8.0), 0.025% bromophenol blue and 0.025% xylene cyanole PF) and heated at 95° C. for 2 min. RNA fragments were separated by 10% PAGE/8 M urea. The gel was stained by SYBR Green II (Sigma) according to manufacturers procedure, and visualised on a Fluorimager (Bio-Rad).

[1] = Cyclic voltammetry of Fc-NTP; assay type: physicochemical; details: vs. Ag/AgCl; 20 mM tris-acetate pH 7.4, 100 mM KCl, 1 mM MgCl2; scan rate 20 mV/s
Text: Fc-dUTP and Fc-UTP have characteristic absorption spectra which correspond to a superposition of spectra for the modified nucleotide and ferrocene carboxamide constituents. They have a strong absorption in the UV region and a seal, broad peak characteristics of ferrocene near 440 nm. Cyclic voltammetry of Fc-dUTP yields a symmetric peak with E1/2=398 mV vs. Ag/AgCl, consistent with reversible redox reaction of the Fc moiety. The redox potential of Fc-dUTP is 90 mV greater than the potential of ferrocenecarboxylate (310 mV vs. Ag/AgCl) measured in the same buffer (data now shown), reflecting the change of pentadienyl ring substituent (—COO to —CONHR) to one which is more electron-withdrawing. The observed potential is close to that reported for a ferrocene carboxamide moiety attached to the 5′-end of DNA oligonucleotides in aqueous buffer (406-425 mV vs. Ag/AgCl).
Cyclic voltammograms were recorded with an electrochemical analyser (BAS). The three-electrode system consisted of a glassy carbon working electrode, a Ag/AgCl (saturated KCl) reference electrode (Eref=206 mV) and a platinum counter electrode. Experiments were performed in a 5 ml electrochemical cell containing 0.8 mM Fc-NTP in 20 mM tris-acetate (pH 7.4), 100 mM KCl, and 1 mM MgCl2 at a scan rate of 20 mV/s. The scan range was from −0.1 to +0.8 V (vs. Ag/AgCl). (See FIG. 2).

T1 sequence (P00573 whole entry): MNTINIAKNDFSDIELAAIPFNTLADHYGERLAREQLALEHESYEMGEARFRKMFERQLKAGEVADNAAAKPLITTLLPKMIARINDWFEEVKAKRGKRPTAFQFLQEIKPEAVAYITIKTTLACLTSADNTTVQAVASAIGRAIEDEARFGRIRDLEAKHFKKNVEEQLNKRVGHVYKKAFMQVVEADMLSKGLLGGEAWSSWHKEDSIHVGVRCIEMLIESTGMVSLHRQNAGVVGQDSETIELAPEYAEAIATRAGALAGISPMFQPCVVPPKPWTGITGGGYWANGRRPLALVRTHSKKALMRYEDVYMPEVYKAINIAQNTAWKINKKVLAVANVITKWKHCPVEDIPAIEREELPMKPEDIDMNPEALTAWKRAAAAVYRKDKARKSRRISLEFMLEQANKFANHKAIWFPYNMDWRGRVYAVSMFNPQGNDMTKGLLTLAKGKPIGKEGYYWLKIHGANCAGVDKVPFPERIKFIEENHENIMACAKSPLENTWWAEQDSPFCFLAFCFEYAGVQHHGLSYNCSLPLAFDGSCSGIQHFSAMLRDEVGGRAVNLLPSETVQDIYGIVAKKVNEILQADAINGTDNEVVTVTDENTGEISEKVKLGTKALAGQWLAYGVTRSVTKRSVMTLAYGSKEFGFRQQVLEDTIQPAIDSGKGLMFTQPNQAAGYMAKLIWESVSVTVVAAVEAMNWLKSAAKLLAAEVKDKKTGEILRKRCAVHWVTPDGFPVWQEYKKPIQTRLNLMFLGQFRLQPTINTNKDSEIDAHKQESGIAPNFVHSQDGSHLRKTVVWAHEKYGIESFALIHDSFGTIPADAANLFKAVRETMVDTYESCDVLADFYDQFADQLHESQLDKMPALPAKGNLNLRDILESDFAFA

Row | Compound | amount of RNA product formed (T7 RNA polymerase; substitution of UTP by Fc-UTP, total 0.4 mM) | amount of RNA product formed (T7 RNA polymerase; total absence of UTP (full substitution by Fc-UTP)) | E1/2 (redox potential) [1] [mV]
1 | O=C(NCC=Cc1cn([C@@H]2O[C@H](COP(=O)(O)OP(=O)(O)OP(=O)(O)O)[C@@H](O)[C@H]2O)c(=O)[nH]c1=O)[c-]1cccc1.[Fe+2].c1cc[cH-]c1 [Fc-UTP, 5-(3ferrocenecarboxamidopropenyl-1)-uridine-5′-triphosphate] | significant decrease in the amount of RNA product formed | synthesized a significant amount of RNA product | 
2 | ferrocenecarboxylate [reference compound] |  |  | 310
